Results reported in ChEMBL document CHEMBL2448811, “Comparison of the accuracy of experimental and predicted pKa values of basic and acidic compounds” (Pharm Res, 2013).
Where a SMILES comes first, the peptide text is derived from it.

assay: physchem; conditions: not given

In the case of `CCCC(=O)OC(CC(=O)[O-])C[N+](C)(C)C` (stereo not given) [Butyryl-carnitine], the pKa is reported as 3.56.

assay: physchem; conditions: not given; remark: another data set of the same source

Point of comparison: `CCC(=O)O[C@](Cc1ccccc1)(c1ccccc1)[C@H](C)CN(C)C` [PROPOXYPHENE], pKa 9.06. Against it:
- CC(Cc1ccc(C(C)(C)C)cc1)CN1C[C@@H](C)O[C@@H](C)C1 (stereo not given in full) [FENPROPIMORPH] — lower, 7.34
- CCN(C)C(=O)Oc1cccc([C@H](C)N(C)C)c1 [RIVASTIGMINE] — lower, 8.8

same assay, conditions: pKa

Point of comparison: `CNC[C@H](O)[C@@H](O)[C@H](O)[C@H](O)CO` [MEGLUMINE], pKa 9.6. Against it:
- CNC(=C[N+](=O)[O-])NCCSCc1ccc(CN(C)C)o1 [RANITIDINE] — lower, 8.31
- Cc1cc(=O)oc2cc(O[C@@H]3O[C@H](CO)[C@@H](O)[C@H](O)[C@H]3O)ccc12 — lower, 2.82
- N[C@@H](Cc1c[nH]c2ccccc12)C(=O)N[C@@H](Cc1c[nH]c2ccccc12)C(=O)O (H-Trp-Trp-OH) — lower, 3.38
- CC[C@H]1OC(=O)C[C@@H](O)[C@H](C)[C@@H](O[C@@H]2O[C@H](C)C[C@H](N(C)C)[C@H]2O)[C@@H](CC=O)C[C@@H](C)C(=O)/C=C/C(C)=C/[C@@H]1C [REPROMICIN] — lower, 8.83
- N[C@@H](Cc1ccccc1)C(=O)O [PHENYLALANINE] — lower, 9.08
- CC[C@H]1OC(=O)[C@H](C)[C@@H](O[C@H]2C[C@@](C)(OC)[C@@H](O)[C@H](C)O2)[C@H](C)[C@@H](O[C@@H]2O[C@H](C)C[C@H](N(C)C)[C@H]2O)[C@](C)(O)C[C@@H](C)/C(=N\OCOCCOC)[C@H](C)[C@@H](O)[C@]1(C)O [ROXITHROMYCIN] — lower, 9.27
- CCCCC[C@H](O)/C=C/[C@H]1[C@H](O)CC(=O)[C@@H]1CCCCCCC(=O)O [ALPROSTADIL] — lower, 4.87
- CCN(CC)C(=O)Nc1ccc(OCC(O)CNC(C)(C)C)c(C(C)=O)c1 (stereo not given) [CELIPROLOL] — within 0.2 log units, 9.66
- CN(C)CCO[C@]1(c2ccccc2)C[C@H]2CC[C@]1(C)C2(C)C — within 0.2 log units, 9.61
- CO[C@@H]1[C@@H](O[C@@H]2O[C@H](C)[C@@H](O)[C@H](N(C)C)[C@H]2O)[C@@H](CC=O)C[C@@H](C)C(=O)/C=C/[C@@H]2O[C@H]2C[C@@H](C)OC(=O)C[C@H]1OC(C)=O — lower, 8.44
- N[C@@H](CC(=O)O)C(=O)O [ASPARTIC ACID] — within 0.2 log units, 9.67
- CCCCC[C@H](O)/C=C/[C@H]1[C@H](O)CC(=O)[C@@H]1C/C=C\CCCC(=O)O [DINOPROSTONE] — lower, 4.77
- N[C@@H](Cc1c[nH]c2ccccc12)C(=O)N[C@@H](Cc1ccccc1)C(=O)O (H-Trp-Phe-OH) — lower, 3.18

assay: physchem; conditions: not given; remark: another data set of the same source

Point of comparison: `CC(CN1c2ccccc2Sc2ccccc21)N(C)C` (stereo not given) [PROMETHAZINE], pKa 8.7. Against it:
- Cc1ccc(C)c(N2CCN(C3C4CC5CC(C4)CC3C5)CC2)c1 (stereo not given) — lower, 7.6
- CCCCOc1ccc(C(=O)CCN2CCCCC2)cc1 [DYCLONINE] — higher, 9
- CC(C)(C)c1ccc(C(O)CCCN2CCC(C(O)(c3ccccc3)c3ccccc3)CC2)cc1 (stereo not given) [TERFENADINE] — lower, 8.5
- CCCCC1CCN(CCCC(=O)c2ccccc2C)CC1 — lower, 7.85
- Nc1ccc(C(=O)O)c(O)c1 [AMINOSALICYLIC ACID] — lower, 3.4
- Cc1ccc(-n2ncc(C(=O)Nc3nccs3)c2C2CCNCC2)cc1C — higher, 9.5
- CN1CCN(C2=Nc3cc(Cl)ccc3Nc3ccccc32)CC1 [CLOZAPINE] — lower, 7.8
- O=C(CN1CCCCC1)Nc1nc(-c2ccc(Cl)cc2)cs1 — higher, 10.4
- Cn1nnnc1SCC1=C(C(=O)O)N2C(=O)[C@@H](NC(=O)[C@H](O)c3ccccc3)[C@H]2SC1 [CEFAMANDOLE] — lower, 3.4
- O=C(O)CSCC(=O)Nc1nc(-c2ccccc2)c(-c2ccccc2)s1 — lower, 4
- COc1ccc2nc(NC(=O)CN3CCCCC3)sc2c1 — higher, 10
- Cc1ccc(C)c(N2CCN(C3CCCCCC3)CC2)c1 — lower, 7.54
- O=C(O)c1ccccc1C(=O)Nc1nc(-c2ccccc2)cs1 — lower, 3.4
- C=CC1=C(C(=O)O)N2C(=O)[C@@H](NC(=O)/C(=N\O)c3csc(N)n3)[C@H]2SC1 — lower, 3.35
- c1cnc(N2CCN(C3CC4CCC3C4)CC2)nc1 (stereo not given) — lower, 8
- CN1CCCCC1CCN1c2ccccc2Sc2ccc([S+](C)[O-])cc21 (stereo not given) [MESORIDAZINE] — higher, 9.5
- CCN(CC)CCOC(=O)c1ccc(N)cc1Cl [CHLOROPROCAINE] — higher, 9
- Cc1ccc(C)c(N2CCN(C3CCCC(C)C3)CC2)c1 (stereo not given) — lower, 7.16
- CC1CCC(N2CCN(c3ccccc3F)CC2)CC1 (stereo not given) — lower, 7.4
- COc1ccc2nc(NC(=O)CN3CCC(C)CC3)sc2c1 — higher, 10
- O=C(O)c1cc(-c2ccccc2)nc(O)n1 — lower, 2.5
- CCOC(=O)C1=C[C@]2(CC)CCCN3CCc4c(n1c1ccccc41)[C@@H]32 [VINPOCETINE] — lower, 7.1
- CN(C/C=C/C#CC(C)(C)C)Cc1cccc2ccccc12 [TERBINAFINE] — lower, 7.12
- CC(CN(C)C)CN1c2ccccc2Sc2ccccc21 (stereo not given) [METHYLPROMAZINE] — lower, 8.5
- CN(C)CCC=C1c2ccccc2CCc2ccccc21 [AMITRIPTYLINE] — lower, 8.2
- CCn1cc(C(=O)O)c(=O)c2cc(F)c(N3CCNCC3)cc21 [NORFLOXACIN] — lower, 6.05
- Cc1c(Cl)cccc1-n1ncc(C(=O)Nc2nccs2)c1C1CCNCC1 — higher, 9.4
- COc1cc(CN2CCC3(C=Cc4ccccc43)CC2)cc(OC)c1OC — lower, 8.4
- Nc1cc(-c2ccccc2)nc2ccc(Cl)cc12 — lower, 7.4
- C=C(CC)C(=O)c1ccc(OCC(=O)O)c(Cl)c1Cl [ETHACRYNIC ACID] — lower, 3.1
- CC1CCN(CC(=O)Nc2ncc(Cc3cccc4ccccc34)s2)CC1 — higher, 10.6
- CC(C(=O)O)c1ccc(C(=O)c2cccs2)cc1 (stereo not given) [SUPROFEN] — lower, 4.3
- Cc1cccc(-n2ncc(C(=O)Nc3nccs3)c2C2CCNCC2)c1 — higher, 9.5
- Nc1cc(-c2ccccc2)nc2ccc(Br)cc12 — lower, 7.4
- CC1CCN(CC(=O)Nc2nc(-c3ccccc3)cs2)CC1 — higher, 10.5
- CN/C(=C/[N+](=O)[O-])NCCSCc1ccc(CN(C)C)o1 — higher, 9.6
- O=C(CN1CCCCC1)Nc1ncc(Cc2cccc3ccccc23)s1 — higher, 10.5
- Cc1ccc(C)c(N2CCN(C3CCC(C)C3)CC2)c1 (stereo not given) — lower, 7.5
- CN(C)CC/C=C1\c2ccccc2COc2ccccc21 [E-DOXEPIN] — the same, 8.7
- Nc1c2c(nc3ccccc13)-c1ccccc1CC2 — lower, 8.1
- CC(Cc1ccc(O)c(O)c1)(NN)C(=O)O (stereo not given) — lower, 3.5
- NCc1cc(-c2ccccc2)nc2ccccc12 — lower, 8.37
- O=C(CCCN1CC=C(n2c(=O)[nH]c3ccccc32)CC1)c1ccc(F)cc1 [DROPERIDOL] — lower, 7.6
- CC(C(=O)O)c1ccc(-c2ccccc2)c(F)c1 (stereo not given) [FLURBIPROFEN] — lower, 4.3
- CC(NCCC(c1ccccc1)c1ccccc1)c1ccccc1 (stereo not given) [FENDILINE] — higher, 9.3
- O=C1NCN(c2ccccc2)C12CCN(CCCC(c1ccc(F)cc1)c1ccc(F)cc1)CC2 — lower, 7.7
- COc1c(N2CCNC(C)C2)c(F)cc2c(=O)c(C(=O)O)cn(C3CC3)c12 (stereo not given) [GATIFLOXACIN] — higher, 9.4
- O=C(O)c1ccccc1-c1ncc(-c2ccccc2)o1 — lower, 2.9
- CN1CCN(c2c(F)cc3c(=O)c(C(=O)O)cn(CCF)c3c2F)CC1 [FLEROXACIN] — lower, 5.5
- CC[C@]12CCCN3CCc4c(n(c5ccccc45)[C@@](O)(C(=O)OC)C1)C32 (stereo not given in full) — lower, 7.9
- CN(C)CCCN1c2ccccc2CCc2ccc(Cl)cc21 [CLOMIPRAMINE] — higher, 9.1
- CN(C)CCNC(=O)c1cc(-c2ccccc2)nc2ccccc12 — lower, 8.3
- Cc1cnc(NC(=O)CN2CCCCC2)s1 — higher, 10.6
- O=c1[nH]c2ccccc2n1C1CCN(CCCC(c2ccc(F)cc2)c2ccc(F)cc2)CC1 [PIMOZIDE] — lower, 7.45
- CCn1cc(C(=O)O)c(=O)c2cc(F)c(N3CCNC(C)C3)c(F)c21 (stereo not given) [LOMEFLOXACIN] — lower, 5.74
- CCCCNc1ccc(C(=O)OCCN(C)C)cc1 [TETRACAINE] — within 0.2 log units, 8.6
- CC(CN(C)C)CN1c2ccccc2CCc2ccccc21 (stereo not given) [TRIMIPRAMINE] — lower, 8.5
- O=C(O)c1cccnc1 [NIACIN] — lower, 2.4
- NC(=O)C1CCN(CC(=O)Nc2nc(-c3ccccc3)cs2)CC1 — higher, 10.2
- O=C1CCCN1CC#CCN1CCCC1 [OXOTREMORINE] — lower, 8.4
- CCOc1cc(CC(=O)N[C@@H](CC(C)C)c2ccccc2N2CCCCC2)ccc1C(=O)O [REPAGLINIDE] — lower, 3.75
- Cc1nc(NC(=O)CCCC(=O)O)sc1C — lower, 2.5
- CCOC(=O)c1csc(NC(=O)CN2CCCCC2)n1 — higher, 9.9
- CN(C)CCC=C1c2ccccc2C=Cc2ccccc21 [CYCLOBENZAPRINE] — lower, 8.24
- CC1CN(c2c(F)c(N)c3c(=O)c(C(=O)O)cn(C4CC4)c3c2F)CC(C)N1 (stereo not given) — lower, 6.1
- COc1ccc2nc(-c3ccccc3)cc(N)c2c1 — the same, 8.7
- O=C(N[C@H]1CCCC[C@H]1C(=O)O)c1ccccc1 — lower, 3.3
- O=C(CCCN1CCC(O)(c2ccc(Cl)cc2)CC1)c1ccc(F)cc1 [HALOPERIDOL] — lower, 8.5
- CN[C@H]1CC[C@@H](c2ccc(Cl)c(Cl)c2)c2ccccc21 [SERTRALINE] — lower, 8
- CN(C)CCC(c1ccc(Br)cc1)c1ccccn1 (stereo not given) [BROMPHENIRAMINE] — higher, 10.1
- CCCCNc1cc(C(=O)O)cc(S(N)(=O)=O)c1Oc1ccccc1 [BUMETANIDE] — lower, 3.6
- FC(F)(F)c1cccc(N2CCN(C3C4CC5CC(C4)CC3C5)CC2)c1 (stereo not given) — lower, 7.45
- CC/C(=C(\c1ccccc1)c1ccc(OCCN(C)C)cc1)c1ccccc1 [TAMOXIFEN] — higher, 10
- CCN1CCCC1CNC(=O)c1cc(S(=O)(=O)CC)c(N)cc1OC (stereo not given) [AMISULPRIDE] — higher, 9.3
- Cc1ccc(/C(=C\CN2CCCC2)c2ccccn2)cc1 [TRIPROLIDINE] — higher, 9.25
- COc1ccc(C(=O)CCC(=O)O)cc1 — lower, 4.7
- CC1OC(O[C@H]2/C=C/C=C/C=C/C=C/C=C/C=C/C=C/[C@H](C)[C@@H](O)[C@@H](C)[C@H](C)OC(=O)C[C@H](O)C[C@H](O)CC[C@@H](O)[C@H](O)C[C@H](O)C[C@]3(O)C[C@H](O)[C@@H](C(=O)O)[C@H](C2)O3)C(O)C(N)C1O (stereo not given in full) — lower, 3.1
- Clc1ccc2c(c1)N=C(N1CCNCC1)c1ccccc1N2 [N-DESMETHYLCLOZAPINE] — higher, 8.9

assay: physchem; conditions: not given; remark: another data set of the same source

Point of comparison: `CC(NC(C)(C)C)C(=O)c1cccc(Cl)c1` (stereo not given) [BUPROPION], pKa 8.35. Against it:
- CN/C(=C/[N+](=O)[O-])NCCSCc1ccc(CN(C)C)o1 — within 0.2 log units, 8.47

same assay, conditions: pKa

Point of comparison: `COc1c(N2CCNC(C)C2)c(F)cc2c(=O)c(C(=O)O)cn(C3CC3)c12` (stereo not given) [GATIFLOXACIN], pKa 8.74. Against it:
- Nc1ccc(C(=O)O)c(O)c1 [AMINOSALICYLIC ACID] — lower, 3.62
- CN(C)CC/C=C1\c2ccccc2COc2ccccc21 [E-DOXEPIN] — higher, 9
- CN1CCN(c2c(F)cc3c(=O)c(C(=O)O)cn(CCF)c3c2F)CC1 [FLEROXACIN] — within 0.2 log units, 8.8
- CCCCNc1cc(C(=O)O)cc(S(N)(=O)=O)c1Oc1ccccc1 [BUMETANIDE] — lower, 3.83
- CCN1CCCC1CNC(=O)c1cc(S(=O)(=O)CC)c(N)cc1OC (stereo not given) [AMISULPRIDE] — higher, 9.37
